{
  "source": "patent US11207420B2",
  "about": "“Cytotoxin and conjugate, uses of same and preparation method therefor” (priority 2017, dated 2021)",
  "key": {"MDA-MB-468": {"system": "MDA-MB-468", "experiment": "Inhibitory effect of small molecule toxins on cell proliferation in vitro (CCK8)", "format": "cell-based", "details": "MDA-MB-468, 7500 cells/well, 4 days", "experimental": "(§1) First, tumor cells MDA-MB-468 and NCI-H322M were cultured; the small molecule toxins of the present invention, maytansin derivative (DM1, Nanjing Lianning), monomethyl auristatin F (MMAF, Nanjing Lianning) were co-cultured respectively with the tumor cells. Then, CCK8 reagent (Dongren Chemical Technology Co., Ltd.) was added, followed by detection with the microplate reader (manufacturer: Molecular Devices, model: SpectraMax M2) (wavelength: 450 nm). The activity of dehydrogenase in mitochondria was detected, to evaluate the inhibitory effect of small molecule toxins on cell proliferation.\n(§2) Test of cell activity in vitro: toxins were diluted (10 concentration gradients) with the corresponding test medium (containing 2% FBS). Tumor cells were trypsinized by a conventional method using trypsin, and cells were collected by tube and resuspended in the corresponding test medium (containing 2% FBS). The diluted toxins were added to a 96-well plate, to which were added the cells. Thereafter, 20 μL of CCK8 reagent was added to each well, and reaction was carried out for 4 hours, followed by detection with the microplate reader (wavelength: 450 nm)."}, "NCI-H322M": {"system": "NCI-H322M", "experiment": "Inhibitory effect of small molecule toxins on cell proliferation in vitro (CCK8)", "format": "cell-based", "details": "5000 cells/well, 3 days, starting at 20000 nM, 5-fold dilution", "experimental": "as §1, §2"}, "[1]": {"details": "Homo sapiens, MDA-MB-468, 96 h, Table 3, starting at 10 nM, 2-fold dilution"}, "[2]": {"details": "Table 2, 3-fold dilution starting at 10000 nM (T001: 500 nM)"}},
  "note": "Square brackets hold non-standard residues; d marks the D form. Peptide text beside a SMILES is read from it. * marks the point of attachment. ξ: configuration not given here. Dolaproine = CO[C@@H]([C@@H]1CCCN1)[C@@H](C)C(=O)O; Dil = CC[C@H](C)[C@H](NC)[C@@H](CC(=O)O)OC; d(β3hF) = N[C@@H](CC(=O)O)Cc1ccccc1; NH(4-aminobenzyl) = Nc1ccc(CN*)cc1; NMe2Val = CC(C)[C@@H](C(=O)*)N(C)C; β3hF = N[C@H](CC(=O)O)Cc1ccccc1; NMeV = CN[C@H](C(=O)O)C(C)C; ξF = NC(Cc1ccccc1)C(=O)O; X1 = CN(Cc1ccc(N)cc1)*",
  "data": [
    {"smiles": "CC[C@H](C)[C@@H]([C@@H](CC(=O)N1CCC[C@H]1[C@H](OC)[C@@H](C)C(=O)N[C@@H](Cc1ccccc1)C(=O)NCc1ccc(N)cc1)OC)N(C)C(=O)[C@@H](NC(=O)[C@H](C(C)C)N(C)C)C(C)C", "note": "[Example T011] (NMe2Val-V[Dil][Dolaproine]F-{NH(4-aminobenzyl)})", "values": [
      {"measurement": "EC50", "setting": "MDA-MB-468; [1]", "result": 0.211, "unit": "nM"}
    ]},
    {"smiles": "CC[C@H](C)[C@@H]([C@@H](CC(=O)N1CCC[C@H]1[C@H](OC)[C@@H](C)C(=O)N[C@H](Cc1ccccc1)C(=O)NCc1ccc(N)cc1)OC)N(C)C(=O)[C@@H](NC(=O)[C@H](C(C)C)N(C)C)C(C)C", "note": "[Example T012] (NMe2Val-V[Dil][Dolaproine][dF]-{NH(4-aminobenzyl)})", "values": [
      {"measurement": "EC50", "setting": "MDA-MB-468; [1]", "result": 1.62, "unit": "nM"}
    ]},
    {"smiles": "CC[C@H](C)[C@@H]([C@@H](CC(=O)N1CCC[C@H]1[C@H](OC)[C@@H](C)C(=O)N[C@H](Cc1ccccc1)C(=O)N(C)Cc1ccc(N)cc1)OC)N(C)C(=O)[C@@H](NC(=O)[C@H](C(C)C)N(C)C)C(C)C", "note": "[Example T002, (S)—N-((3R,4 S,5 S)-1-((S)-2-((1R,2R)-3-(((R)-1-((4-aminobenzyl)(methyl)amino)-1-oxo-3-phenylprop-2-yl)amino)-1-methoxy-2-methyl-3-propionyl)pyrrolidin-1-yl)-3-methoxy-5-methyl-1-heptanoyl-4-yl)-2-((S)-2-(dimethylamino)-3-methylbutyramido)-N,3-dimethylbutyramide] (NMe2Val-V[Dil][Dolaproine][dF]-X1)", "values": [
      {"measurement": "EC50", "setting": "MDA-MB-468; [1]", "result": "> 10", "unit": "nM"}
    ]},
    {"smiles": "CC[C@H](C)[C@@H]([C@@H](CC(=O)N1CCC[C@H]1[C@H](OC)[C@@H](C)C(=O)N[C@@H](CC(C)C)C(=O)NCc1ccc(N)cc1)OC)N(C)C(=O)[C@@H](NC(=O)[C@H](C(C)C)N(C)C)C(C)C", "note": "[Example T018] (NMe2Val-V[Dil][Dolaproine]L-{NH(4-aminobenzyl)})", "values": [
      {"measurement": "EC50", "setting": "MDA-MB-468; [1]", "result": 2.35, "unit": "nM"}
    ]},
    {"smiles": "CC[C@H](C)[C@@H]([C@@H](CC(=O)N1CCC[C@H]1[C@H](OC)[C@@H](C)C(=O)NC(Cc1ccccc1)C(=O)NCc1ccc(N)cc1)OC)N(C)C(=O)[C@@H](NC(=O)[C@H](C(C)C)N(C)C)C(C)C", "note": "(stereo partly drawn) [Example T001, (2S)—N-((3R,4S,5 S)-1-((2S)-2-((1R,2R)-3-((1-((4-aminobenzyl)amino)-1-oxo-3-phenylprop-2-yl)amino)-1-methoxy-2-methyl-3-propionyl)pyrrolidin-1-yl)-3-methoxy-5-methyl-1-heptanoyl-4-yl)-2-((S)-2-(dimethylamino)-3-methylbutyramido)-N,3-dimethylbutyramide] (NMe2Val-V[Dil][Dolaproine][ξF]-{NH(4-aminobenzyl)})", "values": [
      {"measurement": "EC50", "setting": "MDA-MB-468; Homo sapiens, MDA-MB-468, 96 h, Table 2, 3-fold dilution starting at 10000 nM (T001: 500 nM)", "result": 0.538, "unit": "nM"},
      {"measurement": "EC50", "setting": "MDA-MB-468; [1]", "result": 1.13, "unit": "nM"},
      {"measurement": "EC50", "setting": "NCI-H322M; Homo sapiens, 72 h", "result": 2, "unit": "nM"}
    ]},
    {"smiles": "CC[C@H](C)[C@@H]([C@@H](CC(=O)N1CCC[C@H]1[C@H](OC)[C@@H](C)C(=O)N[C@@H](Cc1ccccc1)C(=O)N(C)Cc1ccc(N)cc1)OC)N(C)C(=O)[C@@H](NC(=O)[C@H](C(C)C)N(C)C)C(C)C", "note": "[Example T003, (S)—N-((3R,4S,5 S)-1-((S)-2-((1R,2R)-3-(((S)-1-((4-aminobenzyl)(methyl)amino)-1-oxo-3-phenylprop-2-yl)amino)-1-methoxy-2-methyl-3-propionyl)pyrrolidin-1-yl)-3-methoxy-5-methyl-1-heptanoyl-4-yl)-2-((S)-2-(dimethylamino)-3-methylbutyramido)-N,3-dimethylbutyramide] (NMe2Val-V[Dil][Dolaproine]F-X1)", "values": [
      {"measurement": "EC50", "setting": "MDA-MB-468; [1]", "result": 3.2, "unit": "nM"}
    ]},
    {"smiles": "CC[C@H](C)[C@@H]([C@@H](CC(=O)N1CCC[C@H]1[C@H](OC)[C@@H](C)C(=O)N[C@@H](Cc1ccccc1)C(=O)O)OC)N(C)C(=O)[C@@H](NC(=O)[C@@H](NC)C(C)C)C(C)C", "note": "[monomethyl auristatin F (MMAF), monomethyl auristatin F, reference compound] (H-[NMeV]V[Dil][Dolaproine]F-OH)", "values": [
      {"measurement": "EC50", "setting": "MDA-MB-468; [2]", "result": 98.4, "unit": "nM"},
      {"measurement": "EC50", "setting": "NCI-H322M", "result": 118, "unit": "nM"}
    ]},
    {"smiles": "COc1cc2cc(c1Cl)N(C)C(=O)C[C@H](OC(=O)[C@H](C)N(C)C(=O)CCS)[C@]1(C)O[C@H]1[C@H](C)[C@@H]1C[C@@](O)(NC(=O)O1)[C@H](OC)/C=C/C=C(\\C)C2", "note": "[maytansin derivative (DM1), reference compound]", "values": [
      {"measurement": "EC50", "setting": "MDA-MB-468; [2]", "result": 7.61, "unit": "nM"},
      {"measurement": "EC50", "setting": "NCI-H322M", "result": 38.8, "unit": "nM"}
    ]},
    {"smiles": "CC[C@H](C)[C@@H]([C@@H](CC(=O)N1CCC[C@H]1[C@H](OC)[C@@H](C)C(=O)NCC(=O)NCc1ccc(N)cc1)OC)N(C)C(=O)[C@@H](NC(=O)[C@H](C(C)C)N(C)C)C(C)C", "note": "[Example T015, (S)—N-((3R,4S,5 S)-1-((S)-2-((1R,2R)-3-((2-((4-aminobenzyl)amino)-2-oxoethyl)amino)-1-methoxy-2-methyl-3-oxopropyl)pyrrolidin-1-yl)-3-methoxy-5-methyl-1-oxoheptyl-4-yl)-2-((S)-2-(dimethylamino)-3-methylbutyramido)-N,3-dimethylbutyramide] (NMe2Val-V[Dil][Dolaproine]G-{NH(4-aminobenzyl)})", "values": [
      {"measurement": "EC50", "setting": "MDA-MB-468; [1]", "result": 7.43, "unit": "nM"}
    ]},
    {"smiles": "CC[C@H](C)[C@@H]([C@@H](CC(=O)N1CCC[C@H]1[C@H](OC)[C@@H](C)C(=O)N[C@H](C(=O)NCc1ccc(N)cc1)C(C)C)OC)N(C)C(=O)[C@@H](NC(=O)[C@H](C(C)C)N(C)C)C(C)C", "note": "[Example T019] (NMe2Val-V[Dil][Dolaproine]V-{NH(4-aminobenzyl)})", "values": [
      {"measurement": "EC50", "setting": "MDA-MB-468; [1]", "result": 1.16, "unit": "nM"}
    ]},
    {"smiles": "CC[C@H](C)[C@@H]([C@@H](CC(=O)N1CCC[C@H]1[C@H](OC)[C@@H](C)C(=O)N[C@@H](C)C(=O)NCc1ccc(N)cc1)OC)N(C)C(=O)[C@@H](NC(=O)[C@H](C(C)C)N(C)C)C(C)C", "note": "[Example T016] (NMe2Val-V[Dil][Dolaproine]A-{NH(4-aminobenzyl)})", "values": [
      {"measurement": "EC50", "setting": "MDA-MB-468; [1]", "result": 5.71, "unit": "nM"}
    ]},
    {"smiles": "CC[C@H](C)[C@@H]([C@@H](CC(=O)N1CCC[C@H]1[C@H](OC)[C@@H](C)C(=O)N[C@@H](CC(=O)NCc1ccc(N)cc1)Cc1ccccc1)OC)N(C)C(=O)[C@@H](NC(=O)[C@H](C(C)C)N(C)C)C(C)C", "note": "[Example T014, (S)—N-((3R,4S,5 S)-1-((S)-2-((1R,2R)-3-(((R)-4-((4-aminobenzyl)amino)-4-oxo-1-phenylbut-2-yl)amino)-1-methoxy-2-methyl-3-oxopropyl)pyrrolidin-1-yl)-3-methoxy-5-methyl-1-oxoheptyl-4-yl)-2-((S)-2-(dimethylamino)-3-methylbutyramido)-N,3-dimethylbutyramide] (NMe2Val-V[Dil][Dolaproine][d(β3hF)]-{NH(4-aminobenzyl)})", "values": [
      {"measurement": "EC50", "setting": "MDA-MB-468; [1]", "result": 1.24, "unit": "nM"}
    ]},
    {"smiles": "CC[C@H](C)[C@@H]([C@@H](CC(=O)N1CCC[C@H]1[C@H](OC)[C@@H](C)C(=O)N[C@H](CC(=O)NCc1ccc(N)cc1)Cc1ccccc1)OC)N(C)C(=O)[C@@H](NC(=O)[C@H](C(C)C)N(C)C)C(C)C", "note": "[Example T013, (S)—N-((3R,4S,5 S)-1-((S)-2-((1R,2R)-3-(((S)-4-((4-aminobenzyl)amino)-4-oxo-1-phenylbut-2-yl)amino)-1-methoxy-2-methyl-3-oxopropyl)pyrrolidin-1-yl)-3-methoxy-5-methyl-1-oxoheptyl-4-yl)-2-((S)-2-(dimethylamino)-3-methylbutyramido)-N,3-dimethylbutyramide] (NMe2Val-V[Dil][Dolaproine][β3hF]-{NH(4-aminobenzyl)})", "values": [
      {"measurement": "EC50", "setting": "MDA-MB-468; [1]", "result": 0.414, "unit": "nM"}
    ]}
  ]
}
